Here are results for 26 molecules from ChEMBL document CHEMBL4390642, “The in vivo antinociceptive and μ-opioid receptor activating effects of the combination of N-phenyl-2',4'-dimethyl-4,5'-bi-1,3-thiazol-2-amines and naloxone” (Eur J Med Chem, 2019).

Each structure is given as a SMILES string. Activity calls are given as the source filed them. No cut-off for these calls is given here.

The first data set deals with Mus musculus. As to the kind of experiment: Antinociceptive activity in C57BL/6 mouse model of thermal-induced nociception assessed as inhibition of tail-flick response at 100 mg/kg, iv measured up to 30 to 180 mins in presence of opioid receptor antagonist naloxone at 100 ng/kg, sc by tail flick test. Type of data set: functional, organism-based.
Settings: not given
`CCc1ccccc1Nc1nc(-c2sc(C)nc2C)cs1`: the outcome was Active.

In a further data set the test system is Mus musculus. As to the kind of experiment: Antinociceptive activity in C57BL/6 mouse model of thermal-induced nociception at 100 mg/kg measured at 30 mins post injection by tail flick test.
Settings: not given
The format is functional, organism-based.
For `CCc1ccccc1Nc1nc(-c2sc(C)nc2C)cs1`, the outcome was inactive.

The test system of the next data set is Mus musculus. As to the kind of experiment: Antinociceptive activity in C57BL/6 mouse model of thermal-induced nociception assessed as inhibition of tail-flick response by measuring AUC of tail flick test at 100 mg/kg, iv measured up to 30 to 180 mins in presence of 10 mg/kg, sc opioid receptor antagonist naloxone by tail flick test. The format is functional, organism-based.
Settings: not given
For the molecule `CCc1ccccc1Nc1nc(-c2sc(C)nc2C)cs1`, the AUC worked out at 384 min.sec.

The test system of another data set is Mus musculus. As to the kind of experiment: Antinociceptive activity in C57BL/6 mouse model of thermal-induced nociception at 100 mg/kg, sc measured up to 30 to 180 mins by tail flick test. Type of data set: functional, organism-based.
Settings: not given
Take `C=CCN1CC[C@]23c4c5ccc(O)c4O[C@H]2C(=O)CC[C@@]3(O)[C@H]1C5`: the result was inactive.

Tested on in the next data set: not listed separately
As to the kind of experiment: Toxicity in iv dosed C57BL/6 mouse assessed as safe dose causing no animal death measured up to 30 to 180 mins during tail-flick test. The format is organism-based. As to conditions: in vivo.
Consider `CCc1ccccc1Nc1nc(-c2sc(C)nc2C)cs1`, for which the Activity is 100 mg/kg.

The target in a further data set is T1, Mu-type opioid receptor (Homo sapiens, UniProt P35372). As to the kind of experiment: Agonist activity at human mu opioid receptor expressed in CHOK1 cells coexpressing Galpha15 assessed as intracellular calcium AUC in presence of mu opioid receptor antagonist naloxone and incubated for 1 hr measured for 90 secs at 1.5 sec interval by FLIPR assay to morphine. Set-up: concentration or dose not given beside the values.
T1 sequence (P35372 whole entry): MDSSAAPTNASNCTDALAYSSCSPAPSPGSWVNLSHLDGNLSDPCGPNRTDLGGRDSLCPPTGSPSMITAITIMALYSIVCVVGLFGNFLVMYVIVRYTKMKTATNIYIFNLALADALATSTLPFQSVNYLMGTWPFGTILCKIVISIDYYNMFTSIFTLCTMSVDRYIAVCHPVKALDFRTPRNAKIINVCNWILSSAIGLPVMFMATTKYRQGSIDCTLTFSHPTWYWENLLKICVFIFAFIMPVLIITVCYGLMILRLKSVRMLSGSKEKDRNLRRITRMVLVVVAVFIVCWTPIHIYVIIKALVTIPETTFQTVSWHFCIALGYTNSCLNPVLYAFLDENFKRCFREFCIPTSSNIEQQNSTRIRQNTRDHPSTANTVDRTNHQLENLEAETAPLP
Settings: not given
The format is functional, cell-based.
With `CCc1ccccc1Nc1nc(-c2oc(C)nc2C)cs1`, the Activity came out at 76.2%.

For `COc1cccc(Nc2nc(-c3sc(C)nc3C)cs2)c1C`, the Activity was determined as 27.2%.

For the molecule `CCc1cccc(C)c1Nc1nc(-c2sc(C)nc2C)cs1`, the Activity amounted to 38.2%.

As for `CCc1ccccc1Nc1ncc(-c2sc(C)nc2C)o1`, the Activity is 34.4%.

`CCc1ccccc1Nc1nc(-c2nccs2)cs1`: the outcome was inactive.

Take `CCc1ccccc1Nc1nc(-c2sc(C)nc2C)c(C)s1`: the result was inactive.

Take `Cc1nc(C)c(-c2csc(Nc3ccc(Br)cc3C)n2)s1`: the result was inactive.

Regarding `Cc1nc(C)c(-c2csc(Nc3ccc(Br)cc3C(F)(F)F)n2)s1`, the Activity worked out at 32.9%.

For `CCc1cc(Br)ccc1Nc1nc(-c2sc(C)nc2C)cs1`, the Activity was found to be 5.9%.

For `CCc1ccccc1Nc1nc(-c2sc(N)nc2C)cs1`, the outcome was inactive.

For the molecule `Cc1nc(C)c(-c2csc(Nc3cccc(F)c3C)n2)s1`, the Activity amounted to 57.9%.

Regarding `Cc1cc(C)c(Nc2nc(-c3oc(C)nc3C)cs2)c(C)c1`, the Activity amounted to 43.2%.

As for `Cc1nc(C)c(-c2csc(N)n2)s1`, the result was inactive.

As to `Cc1nc(C)c(-c2csc(Nc3c(C)cccc3F)n2)s1`, the Activity worked out at 32%.

As for `Cc1ccc(Nc2nc(-c3sc(C)nc3C)cs2)c(C)c1`, the Activity turned out to be 57.2%.

On to `CCc1nc(C)c(-c2csc(Nc3ccccc3CC)n2)s1`, for which the Activity is 32.5%.

Regarding `CCc1ccccc1Nc1nc(-c2sc(-c3ccccc3)nc2C)cs1`, the outcome was inactive.

With `Cc1nc(C)c(-c2csc(Nc3ccccc3CC(F)(F)F)n2)s1`, the Activity came out at 72.1%.

On to `CCc1ccccc1Nc1nc(C)cs1`, for which the result was inactive.

For `COc1ccc(Nc2nc(-c3sc(C)nc3C)cs2)c(C)c1`, the Activity is 32.6%.

In the case of `CCc1ccccc1Nc1nc(-c2sc(NC(C)=O)nc2C)cs1`, the result was inactive.

`Cc1cc(C)c(Nc2nc(-c3sc(C)nc3C)cs2)c(C)c1`: the Activity came to 52%.

Consider `COc1ccc(Nc2nc(-c3sc(C)nc3C)cs2)c(OC)c1`, for which the Activity amounted to 45.2%.

Regarding `Cc1nc(C)c(-c2csc(Nc3c(C(C)C)cccc3C(C)C)n2)s1`, the outcome was inactive.

In a further data set the test system is Mus musculus. Put plainly: Antinociceptive activity in C57BL/6 mouse model of thermal-induced nociception assessed as inhibition of tail-flick response by measuring AUC of tail flick test at 25 to 100 mg/kg, iv measured up to 30 to 180 mins in presence of 10 mg/kg, sc opioid receptor antagonist naloxone by tail flick test. Type of data set: functional, organism-based.
Settings: not given
In the case of `CCc1ccccc1Nc1nc(-c2sc(C)nc2C)cs1`, the Activity result is “Dose-dependent effect”.

The next data set has as its system Mus musculus. Put plainly: Antinociceptive activity in C57BL/6 mouse model of thermal-induced nociception assessed as naloxone ED50 for inhibition of tail-flick response by measuring AUC of tail flick test at 100 mg/kg, iv measured up to 30 to 180 mins in presence of 10 mg/kg, sc opioid receptor antagonist naloxone by tail flick test. The format is functional.
Settings: not given
In the case of `CCc1ccccc1Nc1nc(-c2sc(C)nc2C)cs1`, the ED50 was determined as 17.5 mg/kg.

A further data set has as its target T1, Mu-type opioid receptor. Put plainly: Agonist activity at human mu opioid receptor expressed in CHOK1 cells coexpressing Galpha15 assessed as increase in intracellular calcium flux in presence of mu opioid receptor antagonist naloxone and incubated for 1 hr measured for 90 secs at 1.5 sec interval by FLIPR assay. The format is functional, cell-based.
Settings: not given
For the molecule `CCc1ccccc1Nc1nc(-c2oc(C)nc2C)cs1`, the EC50 was 3.3 µM.

As for `COc1cccc(Nc2nc(-c3sc(C)nc3C)cs2)c1C`, the EC50 came to 3.3 µM.

As to `CCc1cccc(C)c1Nc1nc(-c2sc(C)nc2C)cs1`, the EC50 was 2.8 µM.

With `CCc1ccccc1Nc1ncc(-c2sc(C)nc2C)o1`, the EC50 is 13.3 µM.

As for `CCc1ccccc1Nc1nc(-c2nccs2)cs1`, the EC50 was greater than 30 µM.

As for `CCc1ccccc1Nc1nc(-c2sc(C)nc2C)c(C)s1`, the EC50 is greater than 30 µM.

On to `Cc1nc(C)c(-c2csc(Nc3ccc(Br)cc3C)n2)s1`, for which the EC50 is greater than 30 µM.

As to `Cc1nc(C)c(-c2csc(Nc3ccc(Br)cc3C(F)(F)F)n2)s1`, the EC50 worked out at 13.8 µM.

For `CCc1cc(Br)ccc1Nc1nc(-c2sc(C)nc2C)cs1`, the EC50 turned out to be 4.9 µM.

For the molecule `CCc1ccccc1Nc1nc(-c2sc(N)nc2C)cs1`, the EC50 is greater than 30 µM.

On to `Cc1nc(C)c(-c2csc(Nc3cccc(F)c3C)n2)s1`, for which the EC50 came out at 10.1 µM.

On to `Cc1cc(C)c(Nc2nc(-c3oc(C)nc3C)cs2)c(C)c1`, for which the EC50 came to 3.9 µM.

For `Cc1nc(C)c(-c2csc(N)n2)s1`, the EC50 is greater than 30 µM.

As to `Cc1nc(C)c(-c2csc(Nc3c(C)cccc3F)n2)s1`, the EC50 was 4.2 µM.

Take `Cc1ccc(Nc2nc(-c3sc(C)nc3C)cs2)c(C)c1`: the EC50 was 8.8 µM.

Consider `CCc1nc(C)c(-c2csc(Nc3ccccc3CC)n2)s1`, for which the EC50 was 8.6 µM.

Turning to `CCc1ccccc1Nc1nc(-c2sc(-c3ccccc3)nc2C)cs1`, the EC50 was greater than 30 µM.

Regarding `Cc1nc(C)c(-c2csc(Nc3ccccc3CC(F)(F)F)n2)s1`, the EC50 turned out to be 8.5 µM.

Take `CCc1ccccc1Nc1nc(C)cs1`: the EC50 was greater than 30 µM.

In the case of `COc1ccc(Nc2nc(-c3sc(C)nc3C)cs2)c(C)c1`, the EC50 turned out to be 14 µM.

For `CCc1ccccc1Nc1nc(-c2sc(NC(C)=O)nc2C)cs1`, the EC50 is greater than 30 µM.

Take `Cc1cc(C)c(Nc2nc(-c3sc(C)nc3C)cs2)c(C)c1`: the EC50 came out at 6.1 µM.

In the case of `COc1ccc(Nc2nc(-c3sc(C)nc3C)cs2)c(OC)c1`, the EC50 was found to be 19 µM.

With `Cc1nc(C)c(-c2csc(Nc3c(C(C)C)cccc3C(C)C)n2)s1`, the concentration for a half-maximal effect (EC50) is greater than 30 µM.

Tested on in another data set: not listed separately
Put plainly: Toxicity in C57BL/6 mouse at 100 mg/kg, iv measured up to 30 to 180 mins during tail-flick test. Type of data set: organism-based. Conditions: in vivo.
For `CCc1ccccc1Nc1nc(-c2sc(C)nc2C)cs1`, the Activity result is recorded as “Non-Toxic”.

The test system of the next data set is Mus musculus. As to the kind of experiment: Antinociceptive activity in C57BL/6 mouse model of thermal-induced nociception assessed as inhibition of tail-flick response by measuring AUC of tail flick test at 25 mg/kg, iv measured up to 30 to 180 mins in presence of 10 mg/kg, sc opioid receptor antagonist naloxone by tail flick test.
Settings: not given
The format is functional, organism-based.
With `CCc1ccccc1Nc1nc(-c2sc(C)nc2C)cs1`, the AUC was 115 min.sec.

A further data set has as its system Mus musculus. Put plainly: Antinociceptive activity in C57BL/6 mouse model of thermal-induced nociception assessed as inhibition of tail-flick response at 100 mg/kg, iv measured at 30 mins in presence of opioid receptor antagonist naloxone at 100 ng/kg, sc by tail flick test. The format is functional, organism-based.
Settings: not given
With `CCc1ccccc1Nc1nc(-c2sc(C)nc2C)cs1`, the result was inactive.

The test system of a further data set is Mus musculus. As to the kind of experiment: Antinociceptive activity in C57BL/6 mouse model of thermal-induced nociception assessed as inhibition of tail-flick response by measuring AUC of tail flick test at 50 mg/kg, iv measured up to 30 to 180 mins in presence of 10 mg/kg, sc opioid receptor antagonist naloxone by tail flick test. Type of data set: functional, organism-based.
Settings: not given
As to `CCc1ccccc1Nc1nc(-c2sc(C)nc2C)cs1`, the AUC is 160 min.sec.
